For eleven compounds, Classification results are on record in patent US20050282743A1, “Molecular interactions in cells” (Arbor Vita Corporation, priority 2001, published 2005).

Common to all, as to assay: G' assay (10 uM PL peptide), results of TABLE 7 and TABLE 12
Common to all, as to type: binding

Experiment [1] has as its target T1, PDZ protein (GST-PDZ fusion) (Homo sapiens, UniProt Q9NRD5).
T1 construct: made in house; host or cells: E. coli (DH5alpha, BL21 or JM109)
Conditions: PDZ PICK1, PDZ Domain 1. In outline:
(§1)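 Binding classes derive from A450 nm of bound biotin-tagged PL peptide. A score of 5 needs A450 above 4 in more than two repeats.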

For experiment [2], the target named is T2, PDZ protein (GST-PDZ fusion) (Homo sapiens, UniProt Q9BXL6).
T2 construct: made in house; host or cells: E. coli (DH5alpha, BL21 or JM109)
T2 sequence (Q9BXL6 1-1004): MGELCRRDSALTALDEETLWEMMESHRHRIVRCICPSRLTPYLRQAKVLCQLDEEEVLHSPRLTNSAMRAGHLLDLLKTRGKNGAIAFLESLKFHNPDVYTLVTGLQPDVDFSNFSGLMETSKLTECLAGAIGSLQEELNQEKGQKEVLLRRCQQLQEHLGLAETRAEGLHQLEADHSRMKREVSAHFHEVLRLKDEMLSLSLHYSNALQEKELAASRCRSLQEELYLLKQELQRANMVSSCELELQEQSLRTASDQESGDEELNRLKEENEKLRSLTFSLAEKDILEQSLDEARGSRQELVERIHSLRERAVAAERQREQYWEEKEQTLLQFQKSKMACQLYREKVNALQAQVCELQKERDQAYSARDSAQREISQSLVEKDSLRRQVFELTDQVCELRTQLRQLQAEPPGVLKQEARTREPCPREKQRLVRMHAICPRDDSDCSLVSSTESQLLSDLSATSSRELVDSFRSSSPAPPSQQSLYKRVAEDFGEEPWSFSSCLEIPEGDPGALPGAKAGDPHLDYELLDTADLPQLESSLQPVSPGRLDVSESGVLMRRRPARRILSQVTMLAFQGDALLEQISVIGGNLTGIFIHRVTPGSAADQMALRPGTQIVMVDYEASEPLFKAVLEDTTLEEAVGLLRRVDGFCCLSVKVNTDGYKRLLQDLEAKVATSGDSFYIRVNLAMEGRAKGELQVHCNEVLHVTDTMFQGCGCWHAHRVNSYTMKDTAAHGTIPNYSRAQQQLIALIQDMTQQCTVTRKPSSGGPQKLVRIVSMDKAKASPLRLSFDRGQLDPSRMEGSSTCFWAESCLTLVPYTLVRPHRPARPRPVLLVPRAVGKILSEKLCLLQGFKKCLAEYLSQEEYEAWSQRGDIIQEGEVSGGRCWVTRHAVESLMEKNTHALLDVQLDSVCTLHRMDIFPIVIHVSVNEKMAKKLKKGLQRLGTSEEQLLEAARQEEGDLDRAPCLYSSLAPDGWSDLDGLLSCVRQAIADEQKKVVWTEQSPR
Conditions: PDZ CARD14, PDZ Domain 1. In outline:
as §1

Experiment [3] deals with T3, PDZ protein (GST-PDZ fusion) (Homo sapiens, UniProt P53667).
T3 construct: made in house; host or cells: E. coli (DH5alpha, BL21 or JM109)
Conditions: PDZ LIMK1, PDZ Domain 1. The gist of the method: as §1

In experiment [4] the target is T4, PDZ protein (GST-PDZ fusion) (Homo sapiens, UniProt Q9Y6N9).
T4 construct: made in house; host or cells: E. coli (DH5alpha, BL21 or JM109)
Conditions: PDZ PDZ-73, PDZ Domain 2. The gist of the method: as §1

For experiment [5], the target named is T5, PDZ protein (GST-PDZ fusion) (Homo sapiens, UniProt O15021).
T5 construct: made in house; host or cells: E. coli (DH5alpha, BL21 or JM109)
The conditions noted are these: PDZ KIAA0303, PDZ Domain 1. In outline: as §1

Experiment [6] has as its target T6, PDZ protein (GST-PDZ fusion) (Homo sapiens, UniProt O60307).
T6 construct: made in house; host or cells: E. coli (DH5alpha, BL21 or JM109)
Conditions: PDZ KIAA0561, PDZ Domain 1. The gist of the method: as §1

Ends that are not written are not given here. Peptide text beside a SMILES is read from it. * marks the point of attachment. Biotin = O=C1N[C@H]2[C@H](CS[C@H]2CCCCC(=O)*)N1

T6 sequence (O60307 whole entry, the tested form may be a part): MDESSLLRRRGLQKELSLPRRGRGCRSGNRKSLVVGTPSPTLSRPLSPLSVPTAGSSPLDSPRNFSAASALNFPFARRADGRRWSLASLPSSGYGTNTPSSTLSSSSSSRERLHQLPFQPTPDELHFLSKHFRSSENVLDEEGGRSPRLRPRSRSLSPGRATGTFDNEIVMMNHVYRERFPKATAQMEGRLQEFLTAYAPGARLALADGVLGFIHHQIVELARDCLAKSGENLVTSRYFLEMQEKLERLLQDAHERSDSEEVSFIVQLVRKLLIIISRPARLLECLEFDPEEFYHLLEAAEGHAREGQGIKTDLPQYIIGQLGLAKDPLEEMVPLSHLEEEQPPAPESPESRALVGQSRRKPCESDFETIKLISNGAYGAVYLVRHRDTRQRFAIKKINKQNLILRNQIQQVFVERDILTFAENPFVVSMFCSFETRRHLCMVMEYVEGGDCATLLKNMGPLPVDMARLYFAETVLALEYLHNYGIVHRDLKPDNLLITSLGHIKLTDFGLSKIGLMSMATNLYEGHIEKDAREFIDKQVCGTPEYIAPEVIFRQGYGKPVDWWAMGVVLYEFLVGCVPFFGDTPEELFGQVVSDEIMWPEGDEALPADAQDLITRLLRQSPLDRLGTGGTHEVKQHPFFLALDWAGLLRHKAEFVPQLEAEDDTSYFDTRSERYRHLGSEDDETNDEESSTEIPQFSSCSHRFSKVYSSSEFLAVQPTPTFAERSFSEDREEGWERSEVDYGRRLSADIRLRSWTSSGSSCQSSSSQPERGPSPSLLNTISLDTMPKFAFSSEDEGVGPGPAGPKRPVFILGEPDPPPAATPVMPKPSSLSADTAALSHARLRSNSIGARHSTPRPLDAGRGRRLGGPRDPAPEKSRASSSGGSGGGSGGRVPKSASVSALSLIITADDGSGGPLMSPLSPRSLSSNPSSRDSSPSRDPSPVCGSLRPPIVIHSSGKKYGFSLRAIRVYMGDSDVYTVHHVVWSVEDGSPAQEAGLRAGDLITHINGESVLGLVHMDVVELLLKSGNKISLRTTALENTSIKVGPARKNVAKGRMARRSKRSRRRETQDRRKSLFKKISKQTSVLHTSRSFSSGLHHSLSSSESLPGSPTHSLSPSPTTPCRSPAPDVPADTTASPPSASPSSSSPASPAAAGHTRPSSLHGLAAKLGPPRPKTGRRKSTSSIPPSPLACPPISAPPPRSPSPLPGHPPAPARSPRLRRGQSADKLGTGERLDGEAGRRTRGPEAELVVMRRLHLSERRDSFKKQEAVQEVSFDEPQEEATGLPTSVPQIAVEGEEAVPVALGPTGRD
T5 sequence (O15021 whole entry, the tested form may be a part): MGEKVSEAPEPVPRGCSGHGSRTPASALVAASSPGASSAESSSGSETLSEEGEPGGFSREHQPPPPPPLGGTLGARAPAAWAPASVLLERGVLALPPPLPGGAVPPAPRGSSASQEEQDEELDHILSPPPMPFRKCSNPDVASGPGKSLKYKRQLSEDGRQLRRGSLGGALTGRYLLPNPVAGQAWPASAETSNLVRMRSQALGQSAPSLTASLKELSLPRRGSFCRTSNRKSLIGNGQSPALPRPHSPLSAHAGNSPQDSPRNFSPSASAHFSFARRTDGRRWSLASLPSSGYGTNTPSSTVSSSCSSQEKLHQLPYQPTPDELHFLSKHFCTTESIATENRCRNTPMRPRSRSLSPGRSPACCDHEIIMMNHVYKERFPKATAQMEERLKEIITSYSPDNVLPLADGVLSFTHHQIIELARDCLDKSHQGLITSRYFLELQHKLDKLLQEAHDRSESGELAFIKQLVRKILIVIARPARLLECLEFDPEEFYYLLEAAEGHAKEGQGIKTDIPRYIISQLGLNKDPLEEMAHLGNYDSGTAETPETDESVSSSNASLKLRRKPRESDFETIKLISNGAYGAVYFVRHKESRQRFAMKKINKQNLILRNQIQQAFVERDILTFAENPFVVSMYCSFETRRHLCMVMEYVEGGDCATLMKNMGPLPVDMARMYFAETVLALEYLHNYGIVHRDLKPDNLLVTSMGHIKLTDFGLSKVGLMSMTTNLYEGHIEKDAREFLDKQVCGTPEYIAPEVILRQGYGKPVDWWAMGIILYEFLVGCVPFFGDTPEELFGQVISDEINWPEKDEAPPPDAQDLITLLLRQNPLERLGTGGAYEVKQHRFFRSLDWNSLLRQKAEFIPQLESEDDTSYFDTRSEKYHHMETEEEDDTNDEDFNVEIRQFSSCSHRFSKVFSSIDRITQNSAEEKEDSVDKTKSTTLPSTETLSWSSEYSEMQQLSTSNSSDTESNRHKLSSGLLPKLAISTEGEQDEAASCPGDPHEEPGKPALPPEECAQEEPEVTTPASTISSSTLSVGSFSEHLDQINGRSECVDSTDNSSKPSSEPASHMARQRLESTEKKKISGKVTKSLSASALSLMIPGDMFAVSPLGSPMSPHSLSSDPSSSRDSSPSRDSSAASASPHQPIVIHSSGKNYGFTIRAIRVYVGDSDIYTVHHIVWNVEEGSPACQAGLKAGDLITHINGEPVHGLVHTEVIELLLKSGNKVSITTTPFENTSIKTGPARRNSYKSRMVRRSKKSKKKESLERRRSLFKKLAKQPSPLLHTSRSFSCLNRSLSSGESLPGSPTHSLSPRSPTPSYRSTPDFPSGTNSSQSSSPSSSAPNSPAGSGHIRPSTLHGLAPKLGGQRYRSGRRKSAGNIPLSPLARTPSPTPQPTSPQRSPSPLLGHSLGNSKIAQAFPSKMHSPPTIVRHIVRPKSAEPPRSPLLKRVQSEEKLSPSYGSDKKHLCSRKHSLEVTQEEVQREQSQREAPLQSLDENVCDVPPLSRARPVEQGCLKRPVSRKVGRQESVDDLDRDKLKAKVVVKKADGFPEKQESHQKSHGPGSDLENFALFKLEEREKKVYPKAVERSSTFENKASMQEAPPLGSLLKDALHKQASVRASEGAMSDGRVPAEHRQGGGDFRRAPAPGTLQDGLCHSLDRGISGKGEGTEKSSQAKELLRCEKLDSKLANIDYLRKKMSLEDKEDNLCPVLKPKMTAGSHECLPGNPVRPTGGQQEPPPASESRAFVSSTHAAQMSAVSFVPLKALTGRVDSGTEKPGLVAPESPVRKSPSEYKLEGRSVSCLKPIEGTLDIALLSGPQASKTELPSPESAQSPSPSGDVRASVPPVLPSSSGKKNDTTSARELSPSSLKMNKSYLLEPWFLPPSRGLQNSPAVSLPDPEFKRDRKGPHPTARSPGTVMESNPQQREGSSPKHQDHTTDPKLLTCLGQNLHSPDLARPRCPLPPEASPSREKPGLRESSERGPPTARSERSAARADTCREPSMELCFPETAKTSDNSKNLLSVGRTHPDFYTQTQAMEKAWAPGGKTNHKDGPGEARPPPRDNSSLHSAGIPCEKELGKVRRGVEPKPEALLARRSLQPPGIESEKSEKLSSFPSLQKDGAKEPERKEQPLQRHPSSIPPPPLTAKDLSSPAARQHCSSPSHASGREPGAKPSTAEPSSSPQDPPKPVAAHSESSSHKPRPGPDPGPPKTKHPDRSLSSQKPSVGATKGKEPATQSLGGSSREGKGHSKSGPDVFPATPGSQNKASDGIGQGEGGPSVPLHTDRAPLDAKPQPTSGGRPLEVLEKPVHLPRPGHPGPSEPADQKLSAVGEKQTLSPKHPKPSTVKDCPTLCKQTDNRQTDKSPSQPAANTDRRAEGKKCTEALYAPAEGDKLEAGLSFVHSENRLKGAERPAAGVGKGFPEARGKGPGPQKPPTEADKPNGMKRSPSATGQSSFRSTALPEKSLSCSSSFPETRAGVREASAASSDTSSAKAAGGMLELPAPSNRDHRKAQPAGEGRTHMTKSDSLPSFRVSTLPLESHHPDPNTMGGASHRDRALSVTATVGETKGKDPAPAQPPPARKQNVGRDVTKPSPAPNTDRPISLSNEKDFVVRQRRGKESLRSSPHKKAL
T1 sequence (Q9NRD5 whole entry, the tested form may be a part): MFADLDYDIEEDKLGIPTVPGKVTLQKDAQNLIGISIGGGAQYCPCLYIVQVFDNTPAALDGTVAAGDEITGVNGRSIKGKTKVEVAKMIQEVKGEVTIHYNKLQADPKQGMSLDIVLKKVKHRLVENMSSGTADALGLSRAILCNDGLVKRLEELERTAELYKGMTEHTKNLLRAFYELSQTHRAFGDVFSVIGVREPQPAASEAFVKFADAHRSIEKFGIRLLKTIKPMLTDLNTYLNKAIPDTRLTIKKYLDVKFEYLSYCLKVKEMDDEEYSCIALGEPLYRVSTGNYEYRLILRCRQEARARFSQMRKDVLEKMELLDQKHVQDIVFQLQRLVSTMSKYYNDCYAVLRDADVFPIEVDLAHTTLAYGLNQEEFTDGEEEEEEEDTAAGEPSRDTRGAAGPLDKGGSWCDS
T3 sequence (P53667 whole entry, the tested form may be a part): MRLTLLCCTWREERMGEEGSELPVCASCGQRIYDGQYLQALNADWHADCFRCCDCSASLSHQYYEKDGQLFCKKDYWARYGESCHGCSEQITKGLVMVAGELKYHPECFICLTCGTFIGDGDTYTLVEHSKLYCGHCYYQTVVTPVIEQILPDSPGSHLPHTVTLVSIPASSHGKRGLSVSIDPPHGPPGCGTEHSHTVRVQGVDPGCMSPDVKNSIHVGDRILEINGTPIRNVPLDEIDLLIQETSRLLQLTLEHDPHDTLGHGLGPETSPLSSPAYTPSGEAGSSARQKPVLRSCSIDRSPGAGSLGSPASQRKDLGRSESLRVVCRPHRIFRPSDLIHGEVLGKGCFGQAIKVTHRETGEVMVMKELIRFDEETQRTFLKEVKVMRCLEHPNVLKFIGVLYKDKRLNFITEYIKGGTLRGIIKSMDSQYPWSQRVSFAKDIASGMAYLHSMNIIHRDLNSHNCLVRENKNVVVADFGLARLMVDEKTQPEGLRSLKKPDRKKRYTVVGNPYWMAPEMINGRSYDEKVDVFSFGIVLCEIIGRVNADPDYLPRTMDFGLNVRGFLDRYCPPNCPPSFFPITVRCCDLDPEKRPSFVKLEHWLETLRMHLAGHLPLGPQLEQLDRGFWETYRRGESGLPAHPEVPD

With `CC(C)C[C@H](NC(=O)[C@H](Cc1c[nH]c2ccccc12)NC(=O)[C@H](Cc1c[nH]cn1)NC(=O)[C@H](CCCNC(=N)N)NC(=O)[C@H](CC(C)C)NC(=O)[C@@H](NC(=O)[C@H](Cc1ccccc1)NC(=O)[C@H](CCC(N)=O)NC(=O)[C@H](CCCNC(=N)N)NC(=O)[C@@H](NC(=O)[C@H](CCC(=O)O)NC(=O)CNC(=O)[C@H](CCCNC(=N)N)NC(=O)[C@H](CC(=O)O)NC(=O)[C@@H](NC(=O)[C@H](CC(C)C)NC(=O)[C@H](CCC(=O)O)NC(=O)[C@H](CCCNC(=N)N)NC(=O)CCCC[C@@H]1SC[C@@H]2NC(=O)N[C@@H]21)C(C)C)C(C)C)[C@@H](C)O)C(=O)N[C@@H](CCCCN)C(=O)N[C@H](C(=O)O)C(C)C` [Dopamine transporter (Na+-dependent)] (Biotin-RELVDRGEVRQFTLRHWLKV-OH; C-terminus assumed), the Classification in experiment [1] is 2 (A450 nm 1-2). Same read-out and setting: the same measure for `CC[C@H](C)[C@H](NC(=O)[C@H](C)NC(=O)[C@H](CC(C)C)NC(=O)[C@H](Cc1c[nH]c2ccccc12)NC(=O)[C@H](Cc1c[nH]cn1)NC(=O)[C@H](CCC(N)=O)NC(=O)[C@H](CC(C)C)NC(=O)[C@H](CCC(N)=O)NC(=O)[C@H](Cc1ccccc1)NC(=O)[C@H](CCC(N)=O)NC(=O)[C@H](CCCNC(=N)N)NC(=O)[C@@H](NC(=O)[C@H](CC(=O)O)NC(=O)[C@H](CCCNC(=N)N)NC(=O)[C@H](CCC(N)=O)NC(=O)[C@H](C)NC(=O)[C@@H](NC(=O)[C@H](CC(C)C)NC(=O)[C@H](Cc1c[nH]cn1)NC(=O)[C@H](Cc1c[nH]cn1)NC(=O)CCCC[C@@H]1SC[C@@H]2NC(=O)N[C@@H]21)C(C)C)[C@@H](C)CC)C(=O)O` [noradrenaline transporter] (Biotin-HHLVAQRDIRQFQLQHWLAI-OH; C-terminus assumed): 1 (A450 nm 0-1). For the compound “A2AC_HUMAN (Modified) (Biotin-DFRPSFKHILFRRARRGFRQ; not fully specified)”, the Classification in experiment [2] is recorded as 5 (A450 nm of 4 more than 2× repeated). `CC[C@H](C)[C@H](NC(=O)[C@H](CCC(N)=O)NC(=O)CCCC[C@@H]1SC[C@@H]2NC(=O)N[C@@H]21)C(=O)N[C@@H](CO)C(=O)N1CCC[C@H]1C(=O)NCC(=O)NCC(=O)N[C@@H](CC(C)C)C(=O)N[C@@H](CCC(=O)O)C(=O)N1CCC[C@H]1C(=O)N1CCC[C@H]1C(=O)N[C@@H](CO)C(=O)N[C@@H](CCC(=O)O)C(=O)N[C@@H](CCCCN)C(=O)N[C@@H](Cc1c[nH]cn1)C(=O)N[C@@H](Cc1ccccc1)C(=O)N[C@@H](CCCNC(=N)N)C(=O)N[C@@H](CCC(=O)O)C(=O)N[C@H](C(=O)N[C@@H](CCC(=O)O)C(=O)N[C@H](C(=O)O)C(C)C)[C@@H](C)O` [Tax]: the Classification in experiment [3] was 1 (A450 nm 0-1). On to `CSCC[C@H](NC(=O)[C@H](C)NC(=O)[C@H](CCCNC(=N)N)NC(=O)CNC(=O)[C@@H](NC(=O)[C@H](Cc1c[nH]c2ccccc12)NC(=O)[C@H](CCCNC(=N)N)NC(=O)CNC(=O)CCCC[C@@H]1SC[C@@H]2NC(=O)N[C@@H]21)[C@@H](C)O)C(=O)N[C@@H](CO)C(=O)N[C@@H](C)C(=O)N[C@@H](Cc1c[nH]c2ccccc12)C(=O)N[C@@H](CCCCN)C(=O)N1CCC[C@H]1C(=O)N[C@H](C(=O)N[C@@H](CCCNC(=N)N)C(=O)N[C@@H](CCCNC(=N)N)C(=O)N[C@@H](CCC(=O)O)C(=O)N[C@H](C(=O)N[C@@H](CCC(=O)O)C(=O)N[C@H](C(=O)O)C(C)C)[C@@H](C)O)[C@@H](C)O` [HPV E6 #35 (modified)] (Biotin-GRWTGRAMSAWKPTRRETEV-OH; C-terminus assumed), for which the Classification in experiment [3] is recorded as 1 (A450 nm 0-1); in experiment [4] (PL peptide 10 uM) it was 2 (A450 nm 1-2). As to `CC[C@H](C)[C@H](NC(=O)[C@H](CO)NC(=O)[C@@H](NC(=O)[C@H](Cc1ccccc1)NC(=O)[C@H](CO)NC(=O)CCCC[C@@H]1SC[C@@H]2NC(=O)N[C@@H]21)[C@@H](C)O)C(=O)N[C@@H](CC(C)C)C(=O)N[C@H](C(=O)N[C@@H](CS)C(=O)N[C@@H](Cc1c[nH]cn1)C(=O)N[C@@H](CCC(N)=O)C(=O)N[C@@H](CCCNC(=N)N)C(=O)N[C@@H](CCCNC(=N)N)C(=O)N[C@H](C(=O)N[C@@H](CCC(N)=O)C(=O)N[C@@H](CCCNC(=N)N)C(=O)N[C@@H](CCCCN)C(=O)N[C@@H](CCC(=O)O)C(=O)N[C@H](C(=O)N[C@H](C(=O)N[C@@H](C)C(=O)O)C(C)C)[C@@H](C)O)[C@@H](C)O)[C@@H](C)O` [GluR5-2 (rat)], the Classification in experiment [5] was 1 (A450 nm 0-1). “KTMPAATYRLLTGQEQPVYL (Biotin-KTMPAATYRLLTGQEQPVYL) [MINT-3]”: the Classification in experiment [6] is 1 (A450 nm 0-1). Regarding `CC[C@H](C)[C@H](NC(=O)[C@H](Cc1ccc(O)cc1)NC(=O)[C@H](CC(C)C)NC(=O)[C@H](CCC(N)=O)NC(=O)[C@H](Cc1c[nH]cn1)NC(=O)[C@H](CO)NC(=O)[C@H](C)NC(=O)[C@H](CC(C)C)NC(=O)[C@@H](NC(=O)[C@H](CC(=O)O)NC(=O)[C@H](CCSC)NC(=O)[C@H](Cc1ccccc1)NC(=O)[C@@H]1CCCN1C(=O)[C@H](CCCNC(=N)N)NC(=O)[C@@H](NC(=O)[C@H](CC(C)C)NC(=O)[C@H](CC(N)=O)NC(=O)[C@H](CC(=O)O)NC(=O)[C@@H](NC(=O)[C@H](CO)NC(=O)CCCC[C@@H]1SC[C@@H]2NC(=O)N[C@@H]21)[C@@H](C)O)C(C)C)[C@@H](C)O)C(=O)O` [presenilin-2] (Biotin-STDNLVRPFMDTLASHQLYI-OH; C-terminus assumed), the Classification in experiment [6] was 1 (A450 nm 0-1). In the case of “A2AA_HUMAN (modified) (Biotin-HDFRRAFKKILARGDRKRIV; not fully specified)”, the Classification in experiment [2] was 1 (A450 nm 0-1). With `CC[C@H](C)[C@H](NC(=O)CNC(=O)[C@H](CO)NC(=O)[C@H](Cc1ccccc1)NC(=O)[C@@H](NC(=O)[C@H](CS)NC(=O)CNC(=O)CNC(=O)[C@H](C)NC(=O)[C@@H]1CCCN1C(=O)[C@@H](NC(=O)[C@@H]1CCCN1C(=O)CCCC[C@@H]1SC[C@@H]2NC(=O)N[C@@H]21)[C@@H](C)CC)[C@@H](C)O)C(=O)N[C@@H](Cc1ccccc1)C(=O)N1CCC[C@H]1C(=O)N[C@H](C(=O)N[C@@H](CC(C)C)C(=O)N[C@H](C(=O)N[C@@H](CO)C(=O)N1CCC[C@H]1C(=O)N[C@@H](CC(C)C)C(=O)O)[C@@H](C)O)[C@@H](C)O` [KIA 1481] (Biotin-PIPAGGCTFSGIFPTLTSPL-OH; C-terminus assumed), the Classification in experiment [4] is 1 (A450 nm 0-1). As to “ELLQFCRTPNPALKNGQYWV (Biotin-ELLQFCRTPNPALKNGQYWV)”, the Classification in experiment [5] is listed as 1 (A450 nm 0-1).
